Assay results taken from PubChem BioAssay (NCI).
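The compound was tested at five concentrations on cells cultured in 96-well plates, with a 48-hour exposure period. GI50: concentration for 50% inhibition of growth. TGI: concentration producing complete growth inhibition.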

How the values were obtained:
Assay in all cases: NCI-60 cell line screen, 48 h
[1] = tested on: DLD-1 colon
[2] = tested on: DMS 273 small cell lung
[3] = tested on: HOP-18 NSCLC
[4] = tested on: RXF-631 renal
[5] = tested on: SNB-78 CNS
[6] = tested on: M19-MEL melanoma
[7] = tested on: MDA-MB-435
[8] = tested on: MDA-N
[9] = tested on: XF 498 CNS

CC(C)CCCC(C)[C@H]1CCC2[C@H]3C(CC[C@@]21C)[C@@]1(C)CCC=C[C@]12C[C@@H]2[C@@H]3O (stereo not given in full)
TGI [1]: > 100 µM
TGI [2]: > 100 µM
TGI [3]: > 100 µM
TGI [4]: > 100 µM
TGI [5]: > 100 µM

O=C1c2ccc3c4ccccc4n(Cc4ccccc4)c3c2C(=O)N1c1ccccc1
TGI [1]: 37.3 µM
TGI [2]: 24.9 µM
TGI [3]: 24.4 µM
TGI [6]: 33.2 µM
TGI [4]: 36.4 µM
TGI [5]: 71.7 µM

[Au+].[Au+].[Au+].[c-]1nccn1Cc1ccccc1.[c-]1nccn1Cc1ccccc1.[c-]1nccn1Cc1ccccc1
GI50 [1]: 1.96 µM
TGI [1]: 3.7 µM
GI50 [2]: 1.66 µM
TGI [2]: 3.23 µM
GI50 [3]: 2.87 µM
TGI [3]: 8.77 µM
GI50 [6]: 2.01 µM
TGI [6]: 3.96 µM
GI50 [7]: 11.4 µM
TGI [7]: 34.2 µM
GI50 [8]: 11.2 µM
TGI [8]: 26.6 µM
GI50 [5]: 2.84 µM
TGI [5]: 8.63 µM
GI50 [9]: 1.74 µM
TGI [9]: 3.13 µM

CC1(C)O/C(=C\c2ccccc2)C(=O)/C(=C/c2ccccc2)O1
TGI [1]: > 100 µM
TGI [2]: > 100 µM
TGI [3]: > 100 µM
TGI [6]: > 100 µM
TGI [4]: > 100 µM
TGI [5]: > 100 µM
TGI [9]: 54.4 µM

C[n+]1cc(C(O)c2ccc3c(c2)OCO3)c2ccccc2c1 (stereo not given)
TGI [1]: > 100 µM
TGI [2]: > 100 µM
TGI [6]: > 100 µM
TGI [4]: > 100 µM
TGI [5]: > 100 µM

C=C1C[C@]23CCC4C(C)(C)C(=O)CC[C@]4(C)C2C[C@H]1C(O)C3=O (stereo not given in full)
TGI [1]: > 75 µM
TGI [3]: > 75 µM
TGI [6]: > 75 µM
TGI [4]: > 75 µM
TGI [5]: > 75 µM
TGI [9]: > 75 µM

CCCCOC(=O)NC(=O)c1cn(CCCOC(=O)NCCCCCCNC(=O)OCCCn2cc(C(=O)NC(=O)OCCCC)c(=O)[nH]c2=O)c(=O)[nH]c1=O
TGI [1]: > 100 µM
TGI [2]: > 100 µM
TGI [3]: > 100 µM
TGI [6]: > 100 µM
TGI [4]: > 100 µM
TGI [5]: > 100 µM
TGI [9]: 93.1 µM

COc1ccc(C2c3cc(OC)c(OC)cc3C(Cc3ccc([N+](=O)[O-])cc3)C2c2ccc([N+](=O)[O-])cc2)cc1OC (stereo not given)
TGI [1]: > 100 µM
TGI [2]: > 100 µM
TGI [6]: > 100 µM
TGI [4]: > 100 µM
TGI [5]: > 100 µM
TGI [9]: > 100 µM

O=c1[nH]c2cc(Cl)ccc2nc1/C(=N\O)C(O)c1ccc(Cl)cc1Cl (stereo not given)
TGI [1]: > 100 µM
TGI [2]: > 100 µM
TGI [6]: > 100 µM
TGI [4]: > 100 µM
TGI [5]: > 100 µM
TGI [9]: > 100 µM

COc1cc(C)c2c(c1C)OC(=O)c1c(C)c(Cl)c(O)c(C=O)c1O2
TGI [1]: 59 µM
TGI [2]: 37.2 µM
TGI [4]: 57.1 µM
TGI [5]: 50.6 µM
TGI [9]: 49.5 µM

CN[C@@H](C)[C@H](NC)c1ccccc1
TGI [1]: > 100 µM
TGI [2]: > 100 µM
TGI [3]: > 100 µM
TGI [6]: > 100 µM
TGI [4]: > 100 µM
TGI [5]: > 100 µM

O=C1[C@H]2ON(c3ccccc3)C(c3ccc(Cl)cc3)[C@H]2C(=O)N1c1ccc(Cc2ccc(N3C(=O)[C@@H]4ON(c5ccccc5)C(c5ccc(Cl)cc5)[C@@H]4C3=O)cc2)cc1 (stereo not given in full)
TGI [1]: > 100 µM
TGI [2]: > 100 µM
TGI [3]: > 100 µM
TGI [6]: > 100 µM
TGI [4]: > 100 µM
TGI [5]: > 100 µM

Oc1cc(C2OCCCO2)cc(O)c1O
TGI [1]: > 100 µM
TGI [2]: > 100 µM
TGI [3]: > 100 µM
TGI [6]: > 100 µM
TGI [4]: > 100 µM
TGI [5]: > 100 µM

COc1cccc(-n2c3nc(=O)n(C)c(=O)c-3nc3ccccc32)c1
TGI [1]: 96.1 µM
TGI [2]: 30.9 µM
TGI [3]: > 100 µM
TGI [6]: 6.1 µM
TGI [4]: 76.7 µM
TGI [5]: > 100 µM
TGI [9]: 42.7 µM

Cc1cc(C)c(C2[C@H]3C(=O)N(c4ccc(Cc5ccc(N6C(=O)[C@@H]7ON(c8ccccc8)C(c8c(C)cc(C)cc8C)[C@@H]7C6=O)cc5)cc4)C(=O)[C@H]3ON2c2ccccc2)c(C)c1 (stereo not given in full)
TGI [1]: > 100 µM
TGI [2]: > 100 µM
TGI [3]: > 100 µM
TGI [6]: > 100 µM
TGI [4]: > 100 µM
TGI [5]: > 100 µM
